These are literature values, as cited in paper PMC11876601 (Molecular Systems Biology, 2025).

Structures are written as SMILES.

One data set concerns MAP3K6. Also on record: method as in Reinecke et al. (2023). As to conditions: MAP3K6, 5 cell line mix lysate, Kinobeads ε, ref Reinecke et al. (2023), cited from earlier work.
The target in another data set is AXL. Set-up: method as in Reinecke et al. (2023). As to conditions: 5 cell line mix lysate, Kinobeads ε, ref Reinecke et al. (2023), cited from earlier work.

For orientation: EC50 means the concentration giving half of the maximal effect. Consider `COc1cc(N2CCC(N3CCN(C)CC3)CC2)ccc1Nc1ncc(Cl)c(Nc2ccccc2P(C)(C)=O)n1` [Brigatinib], for which the EC50 with MAP3K6 is 844 nM; in the data set on AXL, 635 nM. The pKDapp is 6.16 at MAP3K6 and 6.20 at AXL. The Kd was 697 nM on MAP3K6 (read-out: KDapp) and 635 nM at AXL (read-out: KDapp).
